The test system of test [1] is 5TGM1/C57BL/KaLwRij mouse myeloma model. Put plainly: Overall survival of 5TGM1/C57BL/KaLwRij myeloma mice. The format is in vivo. On the procedure:
Blood. 114 Abstract 2865 (2009). […] Control animals received injections of PBS.
In this regard, the anti-PTH compound, {[TYR^34]bPTH-(7-34)}, was also tested in the presence or absence of bortezomib and PTH to determine whether myeloma growth and/or bone formation were affected. Similar experiments were performed using carfilzomib as shown below.
C57BL/KaLwRij mice (n=5) were subcutaneously injected carfilzomib (1.5 mg/kg) twice a week. The anti-PTH compound (500 μg/kg) was also administered to the mice 3 days prior and 1 day prior to carfilzomib treatment, where noted. Tumor burden was monitored by measuring IgG2b serum concentration twice a week.

A further test has as its system 5TGM1 myeloma cells. Put plainly: 5TGM1 myeloma cell proliferation. Conditions: for 5TGM1 cell growth compared to controls: once a day, FIG. 2. The format is cell-based, mouse. On the procedure: Blood. 93: 1697-1706 (1999). 5TGM1 cells were grown in Hyclone classical liquid media RPMI 1640 (Thermo Scientific Hyclone, Logan, Utah) supplemented with heat-inactivated fetal bovine serum (Thermo Scientific Hyclone, Logan, Utah) and 1% penicillin-streptomycin solution (GIBCO, Grand Island, N.Y.) at 37° C. in 5% CO2. Additionally, two bortezomib-resistant MM cell lines, RPMI 8226 and ARP1, were generated via a stepwise increase in bortezomib (velcade) concentration.
Initially, 5TGM1 myeloma cells were seeded in 24-well plates (10^5 cells/mL) using RPMI-1640, supplemented with 2% FBS, in the presence or absence of bortezomib (velcade), PTH, and/or {[TYR^34]bPTH-(7-34)}.

Test [2] deals with 5TGM1/C57BL/KaLwRij mouse myeloma model. Put plainly: Serum IgG2b level in 5TGM1/C57BL/KaLwRij myeloma mice. The settings on record: bortezomib 1 mg/kg, PTH 80 μg/kg; p=0.017, p=0.029, p=0.017 respectively; FIG. 7.
Experimental: A preclinical myeloma model was employed to examine the effects of PTH and bortezomib (velcade) on proteasome activity with respect to bone remodeling and MM pathogenesis. As such, myelomatous C57BL/KaLwRij mice were injected with 5TGM1 multiple myeloma cells as described. […] Briefly, 5TGM1 inoculation cultures were harvested, centrifuged, washed twice in 50 mL phosphate-buffered saline (PBS), and resuspended at 5×10^6 cells per mL of PBS. Experimental mice were injected with 100 μl of inoculation culture via tail vein injection using a 27-gauge needle. Control animals received injections of PBS.
Each experimental group included 5 mice, and one week after 5TGM1 cell injection, bortezomib, PTH, and/or {[TYR^34]bPTH-(7-34)} were administered in various combinations. The following groups, each containing five mice, were analyzed: untreated controls; bortezomib-treated mice; PTH treated mice; PTH and bortezomib treated mice; and 5{[TYR^34]bPTH-(7-34)} and bortezomib treated mice.
In accord with the experimental procedure outline above, bortezomib (velcade), at a concentration of 1 mg/kg, was administered to the mice via intraperitoneal injection alone, or in combination with PTH or the anti-PTH compound, twice a week (FIG. 6). PTH was added in a similar fashion, once-daily, alone, or in combination with bortezomib, at a concentration of 80 μg/kg. […]
Test [3] deals with bortezomib-resistant RPMI 8226 MM cell line. Description: IC50 of bortezomib in bortezomib-resistant RPMI 8226 cells. The test is classed as cell-based. The settings on record: RPMI8226 bortezomib-resistant cells. The method, then:
5TGM1 myeloma cells (Noboru et al., A multiresponse parathyroid hormone assay: an inhibitor has agonist properties in vivo. American Physiological Society. E589-95 (1983)) were initially derived from the myeloma cell line 5T33, which were obtained from C57BL/KaLwRij mice. See Dallas et al., Ibandronate Reduces Osteolytic Lesions but not Tumor Burden in a Murine Model of Myeloma Bone Disease. Blood. 93: 1697-1706 (1999). 5TGM1 cells were grown in Hyclone classical liquid media RPMI 1640 (Thermo Scientific Hyclone, Logan, Utah) supplemented with heat-inactivated fetal bovine serum (Thermo Scientific Hyclone, Logan, Utah) and 1% penicillin-streptomycin solution (GIBCO, Grand Island, N.Y.) at 37° C. in 5% CO2. Additionally, two bortezomib-resistant MM cell lines, RPMI 8226 and ARP1, were generated via a stepwise increase in bortezomib (velcade) concentration.

Regarding `CC(C)C[C@H](NC(=O)[C@H](CCc1ccccc1)NC(=O)CN1CCOCC1)C(=O)N[C@@H](Cc1ccccc1)C(=O)N[C@@H](CC(C)C)C(=O)[C@@]1(C)CO1` [carfilzomib], the “survival compared to controls” value in test [1] (carfilzomib 1.5 mg/kg subcutaneous twice a week, p=0.012, FIG. 8) is “increased survival”.
Take “{[TYR^34]bPTH-(7-34)} (FMHNLGKHLSSMERVEWLRKKLQDVHNY; Parathyroid hormone; UniProt P01268 38-65, looked up, variant F34Y) [anti-PTH, analog of PTH, antagonist of PTH]”: in the test with 5TGM1 myeloma cells (anti-PTH alone at 100 nM, 500 nM and 1 μM, p=0.1, FIG. 3), the “effect on 5TGM1 cell survival” value was “did not have an effect”.
In the case of `CC(C)C[C@H](NC(=O)[C@H](Cc1ccccc1)NC(=O)c1cnccn1)B(O)O` [bortezomib], the “increased survival versus control mice” value in test [1] (bortezomib 1 mg/kg intraperitoneal twice a week) is recorded as 40%. In test [1] (bortezomib 1 mg/kg intraperitoneal twice a week, control mice maximum five weeks), the maximum survival result is on record as “up to seven”. Also, in test [1] (bortezomib 1 mg/kg intraperitoneal twice a week, p=0.044, FIG. 6), the “survival compared to controls” value is on record as “prolonged survival”. Moreover, the “survival compared to mice treated with bortezomib and the anti-PTH compound” value in test [1] (bortezomib 1 mg/kg, PTH 80 μg/kg, p=0.044 (bortezomib), p=0.047 (bortezomib and PTH)) is “significantly longer period of time”. Also, in test [2], the “serum IgG level compared to controls” value was “significant inhibition”. In addition, the midpoint of inhibition in test [3], the IC50, lay at 250 nM. Moreover, the “5TGM1 cell proliferation compared to controls” value in the test with 5TGM1 myeloma cells (bortezomib alone at 5 nM or 10 nM, every other day, p=0.01 at 5 nM, p=0.001 at 10 nM, FIG. 1) was “concentration dependent reduction in 5TGM1 cell proliferation”.

B1: parathyroid hormone (peptide, UniProt P01270 32-115, looked up)
Parathyroid hormone: SVSEIQLMHNLGKHLNSMERVEWLRKKLQDVHNFVALGAPLAPRDAGSQRPRKKEDNVLVESHEKSLGEADKADVNVLTKAKSQ
modifications: Parathyroid hormone
notes: 84 amino acid polypeptide secreted by the parathyroid glands
As for B1, the “serum IgG level compared to controls” value in test [2] is recorded as “significant inhibition”. The “5TGM1 cell growth compared to controls” value is “not a significant difference” in the test with 5TGM1 myeloma cells (PTH alone 10 nM, p=0.1); “statistically significant decrease in cell growth” with 5TGM1 myeloma cells (PTH alone 50 nM, p=0.001); “statistically significant decrease in cell growth” in the test on 5TGM1 myeloma cells (PTH alone 100 nM, p=0.001).
